For 70 compounds, EC50, outcome and IC50 results are on record in PubChem BioAssay AID179 (DTP/NCI, 2004).

Activity calls are given as the source filed them.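 How the source made its calls: active means compounds giving half or more protection of infected cells from virus-caused growth loss, again on retest; inactive means the rest.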 Some results are limits rather than exact numbers.

The assay deals with CEM cells HIV-1 protection, formazan growth assay. Description: NCI AIDS Antiviral Assay. The note with it: for IC50: measured here: growth of uninfected CEM cells. The essentials:
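Human CEM cells, uninfected and HIV-1-infected, exposed to five drug concentrations; growth measured by soluble formazan assay and scored as percent protection from infection, with protecting compounds retested.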

In general, EC50 refers to the concentration giving half of the maximal effect. As usually defined, the IC50 is the concentration that gives 50% inhibition. A higher IC50 goes with weaker potency. As for `CC(C)(C)[Si](C)(C)OCC1OC(n2ccc(=O)[nH]c2=O)C(O[Si](C)(C)C(C)(C)C)C1CC#N` (stereo not given), the EC50 is > 200 µM, the outcome was inactive and the IC50 turned out to be 11.7 µM.
Consider `O=c1cc(-c2c(O)cc(O)cc2O)oc2cc(O)cc(O)c12`, for which the EC50 was > 200 µM and the IC50 was > 200 µM.
Take `O=C(Nc1ccccc1)N1CCNC1=S`: the EC50 is 162 µM and the IC50 is > 200 µM.
In the same order, the values of `O=C(/C=C/c1ccc(OCc2ccccc2)c(OCc2ccccc2)c1)OCc1ccccc1` are > 200 µM and > 200 µM.
In the same order, the values of `CCCCNC(=S)SSSSC(=S)NCCCC` are > 200 µM and 11.2 µM.
In the same order, the values of `COc1c(Cc2cc(Cl)cc(S(=O)(=O)N(C)C)c2OC)cc(Cl)cc1S(=O)(=O)N(C)C` are > 14.1 µM and > 14.1 µM.
As for `CC/C(=C/OC)P1(=O)OC(C)(C)CN1C(C)(C)C` (stereo not given), the EC50 was > 200 µM and the IC50 turned out to be 151 µM.
In the same order, the values of `Cc1ccc(/C([O-])=C(\C(=S)Nc2cccc(Cl)c2)[n+]2ccccc2)cc1` are > 200 µM and 25.1 µM.
In the same order, the values of `COC(=O)C1C2C=CC(C2)C1(C(=O)OC)S(=O)CC12CCC(CC1O)C2(C)C` (stereo not given) are > 229 µM and > 229 µM.
For `NCC1Nc2ccccc2[C@@H](O)C1O` (stereo not given in full), the EC50 was > 933 µM and the concentration for half-maximal inhibition (IC50) was > 933 µM.
`Sc1ccc2ccccc2c1CN1CCOCC1`: the concentration giving a half-maximal response (EC50) is > 87.1 µM and the half-maximal inhibitory concentration (IC50) was found to be 32.4 µM.
For the compound `Cc1ccc(S(=O)(=O)NC(=O)OC23COCN2COC3)cc1`, the EC50 was > 759 µM and the IC50 was found to be 132 µM.
Regarding `O=[N+]([O-])c1cccc2nc3ccccc3c(NCCCCCNc3c4ccccc4nc4cccc([N+](=O)[O-])c34)c12`, the EC50 is 0.0195 µM and the IC50 turned out to be 0.0832 µM.
In the same order, the values of `N#CCCN(CCCN(C(=O)Nc1ccccc1)c1ccccc1)C(=O)Nc1ccccc1` are > 200 µM and 95.5 µM.
Turning to `CN(C)C(=O)C(CC[N+]1(C)CCCC12CCCCC2)(c1ccccc1)c1ccccc1` (stereo not given), the EC50 was > 200 µM and the half-inhibitory concentration (IC50) turned out to be 74.1 µM.
Consider `CCOC(=O)C(=Cn1c(=S)[nH]c2cc(C)ccc21)C(=O)OCC`, for which the EC50 was > 200 µM and the IC50 is > 200 µM.
Regarding `N#CC1=C2Sc3ccccc3N2[C@H](c2ccccc2)[C@H]2COC(=O)[C@@H]12`, the EC50 was > 151 µM and the IC50 was 38 µM.
As for `Cc1cc2cc(O)c3c(=O)c4c(O)cccc4c(=O)c3c2c(=O)c1=O`, the EC50 was > 21.4 µM and the IC50 was 12 µM.
In the same order, the values of `C=CCNC(=O)NNC(O)(C(=O)OCC)C(F)(F)F` (stereo not given) are > 200 µM and 174 µM.
For the compound `Cc1noc2cccc(OCc3ccccc3)c12`, the EC50 was > 30.2 µM and the IC50 was > 30.2 µM.
Regarding `COC(=O)C(=O)C(CC(=O)Nc1cccc(C(F)(F)F)c1)C(=O)OC` (stereo not given), the EC50 is > 14.5 µM and the IC50 is > 14.5 µM.
`OC1COc2c3ccccc3nn2C1` (stereo not given): the EC50 is > 1320 µM and the IC50 amounted to 871 µM.
In the same order, the values of `Nc1cc(Cl)ccc1S` are > 200 µM and 13.8 µM.
In the same order, the values of `CCCCc1ccc(-n2sc3ncc(-c4ccccc4)cc3c2=O)cc1` are 95.5 µM and 117 µM.
In the case of `Cc1cn(C2CC(O)C(CN(O)CCC3CC(n4cc(C)c(=O)[nH]c4=O)OC3CO)O2)c(=O)[nH]c1=O` (stereo not given), the EC50 was > 200 µM and the IC50 was > 200 µM.
In the case of `Clc1cccc(C2ON=C(c3ccccc3)N2C23CC4CC(CC(C4)C2)C3)c1Cl` (stereo not given), the EC50 is > 200 µM and the IC50 was > 200 µM.
Regarding `CCOC(=O)/C(=C/c1ccco1)P(=O)(OCC)OCC`, the EC50 is > 832 µM and the IC50 amounted to 490 µM.
On to `CN(C)Cc1cc(N=Nc2cccc(Cl)c2)ccc1O`, for which the EC50 was > 20 µM and the IC50 was 4.79 µM.
For `N#Cc1ccccc1NC(=O)/C(=N\NC(=O)c1ccncc1)C(c1cnc2ccc([N+](=O)[O-])cc2n1)[N+](=O)[O-]` (stereo not given), the EC50 was > 479 µM and the IC50 was 191 µM.
For the compound `C/C(=N\N=C(N)N)c1ccccc1`, the outcome was inactive.
Turning to `CCOC(=O)/C(=C/c1ccc(OC)c(OC)c1)C(=O)c1ccccc1`, the EC50 was > 75.9 µM and the concentration for half-maximal inhibition (IC50) came out at 40.7 µM.
In the same order, the values of `Cc1cc(C)c(C#N)c(SCC(=O)c2sc3c(C#N)c(C)cc(C)[n+]3c2[O-])n1` are > 6.61 µM and > 6.61 µM.
In the same order, the values of `O=[N+]([O-])C(=C1NCCN1)C(Cl)=C(Cl)Cl` are > 200 µM and > 200 µM.
Consider `CC(=O)[C@H]1[C@@H](OCc2ccccc2)O[N+]([O-])=C(C)[C@@H]1c1ccccc1`, for which the EC50 was > 123 µM and the IC50 came to 89.1 µM.
In the same order, the values of `CC1(C)CCC[C@]2(C)[C@H]3[C@H](C#N)c4cc(O)c(O)cc4O[C@@]3(C)CC[C@@H]12` are > 200 µM and 1.41 µM.
In the same order, the values of `COc1cc(N=NN(C)C)c(C(C)c2c3cc(OC)c(OC)cc3cc[n+]2C)cc1OC` (stereo not given) are > 200 µM and 20.9 µM.
For `CS(=O)(=O)N1CC(CCl)c2ccc(SSc3ccc4c(c3)N(S(C)(=O)=O)CC4CCl)cc21` (stereo not given), the outcome was inactive.
With `Clc1ccc(-c2cc3nc4ccccc4nc3o2)cc1`, the EC50 was > 100 µM and the IC50 was > 100 µM.
Regarding `CCOC(=O)/C(=C\c1cccc(F)c1)P(=O)(OCC)OCC`, the EC50 is > 57.5 µM and the IC50 amounted to 10.2 µM.
In the same order, the values of `O=[N+]([O-])c1ccc2nc(-c3ccccc3[N+](=O)[O-])[nH]c2c1` are > 126 µM and 24.5 µM.
As for `CN1C(Cl)=NS(=O)(=O)c2ccccc21`, the EC50 is > 200 µM and the half-maximal inhibitory concentration (IC50) was > 200 µM.
For `O=C(/N=C/c1c(O)c2ccccc2oc1=O)Oc1ccccc1`, the EC50 is > 100 µM and the concentration for half-maximal inhibition (IC50) was found to be 33.1 µM.
In the same order, the values of `COC(=O)Cc1c(-c2c(CC(=O)OC)c3ccccc3n2C2OC(COC3OC(COC(C)=O)C(OC(C)=O)C(OC(C)=O)C3OC(C)=O)C(O)C(O)C2O)[nH]c2ccccc12` (stereo not given) are 105 µM and 151 µM.
In the same order, the values of `O=c1[nH]c2nccn2c2c1SCCN2` are > 200 µM and > 200 µM.
`CCOC(=O)c1c(NC(=O)c2ccccc2)c(C#N)c2n1CCCCC2`: the EC50 was > 100 µM and the IC50 was > 100 µM.
As to `O=C1c2ccccc2N2OC3(N4CCCC4)CCCC3C12c1ccccc1` (stereo not given), the EC50 is > 38 µM and the IC50 is > 38 µM.
Consider `O=C(O)c1ccc([N+](=O)[O-])c2c(=O)c3ccccc3[nH]c12`, for which the result was inactive.
Turning to `CC1NCCc2c1[nH]c1ccc(O)cc21` (stereo not given), the result was inactive.
As to `COc1ccc2c(c1)OC[C@@H]1c3cc4c(cc3O[C@H]21)OCO4`, the EC50 was > 63.1 µM and the half-maximal inhibitory concentration (IC50) was > 63.1 µM.
For the compound `CN(C)CCSc1nccc(-c2ccc(-c3ccnc(SCCN(C)C)n3)s2)n1`, the EC50 is > 102 µM and the IC50 was 0.182 µM.
On to `O=c1[nH]c(=S)[nH]c2c1CN(CCCN1CCOCC1)CN2`, for which the EC50 was > 794 µM and the IC50 came to 49 µM.
With `COc1c2cc(C(C)(C)C)cc1Cc1cccc(c1O)Cc1cc(C(C)(C)C)cc(c1OC)Cc1cccc(c1O)Cc1cc(C(C)(C)C)cc(c1OC)Cc1cccc(c1O)C2`, the EC50 was > 151 µM and the IC50 is > 151 µM.
For the compound `CC(C)N(C(=O)C12C3C4C5C3C1(C(=O)O)C5C42)C(C)C` (stereo not given), the EC50 is > 661 µM and the IC50 was > 661 µM.
Consider `C=Cc1ccc(C)[n+](C[Si](C)(C)O[Si](C)(C)C[n+]2cc(C=C)ccc2C)c1`, for which the EC50 is > 380 µM and the half-inhibitory concentration (IC50) turned out to be 245 µM.
Consider `COC1/C=C/OC2(C)Oc3c(C)c(O)c4c(O)c(c(/C=N/N=C(\N)N[N+](=O)[O-])c(O)c4c3C2=O)NC(=O)C(C)=C/C=C/C(C)C(O)C(C)C(O)C(C)C(OC(C)=O)C1C` (stereo not given), for which the outcome was inactive.
Take `Cc1cc2c(c(C(N)=O)c1C)-c1ccccc1C2=O`: the EC50 was > 102 µM and the IC50 is > 102 µM.
For the compound `Cc1ccnc(NC(=O)Nc2cc(Cl)ccc2Cl)c1`, the EC50 is > 200 µM and the IC50 was > 200 µM.
As to `O=C1CSC(c2ccc(Cl)cc2)N1c1ccc(-c2ccc(-n3c(-c4ccccc4)nc4ccccc4c3=O)cc2)cc1` (stereo not given), the EC50 was > 200 µM and the IC50 worked out at 47.9 µM.
In the same order, the values of `CCCCC1CC(c2cccc([N+](=O)[O-])c2)=NO1` (stereo not given) are > 15.1 µM and > 15.1 µM.
In the case of `CCN(CC)CCn1c2cc3c(cc2c(=O)c2cccnc21)OCO3`, the EC50 is > 200 µM and the IC50 came out at 7.94 µM.
In the same order, the values of `O=Nc1c2n[nH]c1CCCCCCCCC2` are > 309 µM and 44.7 µM.
Consider `CC[C@]1(Cc2ccc(OC)c(OC)c2)C=[N+]([O-])O[C@H](OC2CCCC2(c2ccccc2)c2ccccc2)[C@@H]1OC(=O)c1ccccc1` (stereo not given in full), for which the EC50 is > 200 µM and the IC50 was 1.07 µM.
In the same order, the values of `CC(C)(C)c1cc(C2COC(=O)COCC(=O)OCCOCCOCCO2)cc(C(C)(C)C)c1O` (stereo not given) are > 200 µM and 95.5 µM.
In the same order, the values of `c1ccc(-c2ccnc3c2ccc2c(-c4ccccc4)ccnc23)cc1` are > 21.9 µM and 11.5 µM.
As to `Cc1ccc(S(=O)(=O)N[C@H](C(=O)O)c2ccccc2)cc1`, the result was inactive.
As for `COc1cc2c(cc1OC(=O)CC(C)O)C1C(OC2=O)C(OC(C)=O)C=C2CCN(C)[C@H]21` (stereo not given in full), the EC50 is > 56.2 µM and the IC50 was > 56.2 µM.
For the compound `CC(=O)Nc1ccc2c(c1)C(c1ccccc1)=NCC(=O)N2`, the EC50 was > 200 µM and the IC50 turned out to be 55 µM.
In the same order, the values of `O=C(O)C1CC=CCC1c1c2ccc(=O)cc-2oc2cc(O)ccc12` (stereo not given) are 3.98 µM and 141 µM.
In the same order, the values of `CCOc1ccc(NCC(=O)N2CC(=O)Nc3cc(C)c(C)cc32)cc1` are > 20.4 µM and > 20.4 µM.
In the same order, the values of `CCN(CC)c1ccc2c(c1)Oc1cc(N(CC)CC)ccc1C21c2ccccc2C(=O)N1c1ccccc1` are > 200 µM and > 200 µM.
